From patent US20240398844A1, “PHENYLCOUMARINS FOR TREATING INFLAMMATION” (Ohio State Innovation Foundation, priority 2021, published 2024)

Legend:
[1] = test system: NFκB p65; assay: Diabetic zebrafish Western blot, NFκB expression; type: in vivo; settings: for NFκB p65 expression (Western blot band density): diabetic zebrafish, 10, 5, and 1 μM (rosiglitazone 10 μM), FIG. 10
Protocol: Alloxan-induced diabetic zebrafish were treated with compounds for immunoblot to validate the newly developed animal model, determine the antidiabetic potential of natural product leads, evaluate glucose metabolism, and discover possible mechanisms of action.
At 72 hpf, naturally dechorionated zebrafish were sorted into a 24-well microplate with 10 fish per well. Type 2 diabetes was induced with the diabetogenic agent alloxan at a dose of 0.5 mg/mL in system water for 3 hours. […] After 3 hours of treatment with natural product samples, 10 mg/mL D-glucose was administered in system water for 30 minutes, followed by 1 hour in fresh system water to metabolize the glucose and natural product leads. Upon completion of the 4-phase treatment cycle, zebrafish treatment groups were snap frozen into individual microcentrifuge tubes on dry ice, stored overnight at −80° C., thawed, homogenized with 2 μL PBS per animal, and centrifuged at 4° C. for 1 hour at 17,000 rpm. Protein content of homogenate supernatant was determined using the Pierce BCA Protein Assay kit (Pierce Biotechnology) and bovine serum albumin (BSA) standard curve. Absorbance of protein solutions from zebrafish homogenates and serial dilutions of the BSA standard were measured at 544 nm, using a FLUOstar Optima plate reader (BMG Labtechnologies GmbH, Inc.). Homogenates were analyzed by Western blot. Equal amounts of protein (20 μg) were combined with 4× lithium dodecyl sulphate (LDS) loading buffer (NuPAGE, Life Technologies, Carlsbad, CA, USA), brought to volume (15 μL) with PBS, and heated to 95° C. for 5 minutes. Proteins were resolved using NuPAGE Bis-Tris 4-12% gradient sodium dodecyl sulfate polyacrylamide gel electrophoresis (SDS-PAGE) gels together with SeeBlue Plus2 Pre-Stained Standard Ladder (Life Technologies).
Electrophoresis was performed using NuPAGE MES SDS Running Buffer and XCell SureLock Mini-Cell Electrophoresis System (Life Technologies). Separated proteins were transferred from the gel to a polyvinylidene fluoride (PVDF) membrane using tris buffered saline with Tween-20 (TBST) buffer. The blots were blocked in 3% BSA in TBST and subsequently probed using primary antibodies (1:1000 in 1% BSA in TBST) against each target overnight (Table 1). The secondary, horseradish peroxidase (HRP) conjugated antibodies (1:2000) were obtained from Santa Cruz Biotechnology Inc., (Santa Cruz, CA, USA). Conjugated antibodies were detected using SuperSignal West Femto chemiluminescent substrate from Pierce Biotechnology. Western blots were visualized, and images captured using a luminometer and LumiAnalyst 3.0 software (Boehringer-Mannheim, Mannheim, Germany). Band density was quantified for proteins of interest using ImageJ Gel Analysis.
In the case of duplicate blots, the band density results were expressed in bar graphs as the mean±standard error of the mean (SEM) of two independent experiments. Due to the labor- and time-intensive aspect of Western blot analysis with multiple target proteins, a maximum of two independent immunoblot experiments were performed per compared sample set. […] Additionally, treatment groups were also evaluated versus the diabetic, untreated control group for significance by Student's f-test and indicated in the bar graphs with p values represented by *p<0.05, **p<0.01, and ***p<0.001. […]

[2] = test system: NFκB; assay: NFκB in vitro assay, NFκB translocation to the nucleus in HeLa cells; type: cell-based; settings: for IC50: inhibiting NFκB translocation to the nucleus, tested at 50, 5, 0.5, and 0.05 μM
Protocol: Following derivatization and purification, compound 40 was tested in the NFκB and PPAR-Y in vitro assays, as well as the diabetic zebrafish Western blot. The three 4-phenylcoumarin glycoside natural products from the diverse library (22, 23, and 24) and the isopropyl ether derivative (40), were evaluated for PPAR-γ activity at 50 μg/mL in HeLa cells according to a PPAR-γ ELISA Assay (Table 4). […] NFκB Assay (Table 4).
As an excellent lead, 24 was derivatized to yield 40, and both compounds were evaluated in the NFκB and PPAR-γ in vitro assays (Table 4). […] To investigate 24 and 40 in a live, metabolizing system with appropriate hormone responses, the compounds were tested (at 10, 5, and 1 μM) in the larval diabetic zebrafish assay.

[3] = biological target: T1, PPAR-γ (Homo sapiens, UniProt P37231); assay: PPAR-γ ELISA Assay in HeLa cells (in vitro PPAR-γ assay); type: cell-based; settings: 50 μg/mL; for PPAR-γ activity in the in vitro assay (in words): versus positive control rosiglitazone
T1 construct: endogenous in cells; host or cells: HeLa
T1 sequence (P37231 1-505): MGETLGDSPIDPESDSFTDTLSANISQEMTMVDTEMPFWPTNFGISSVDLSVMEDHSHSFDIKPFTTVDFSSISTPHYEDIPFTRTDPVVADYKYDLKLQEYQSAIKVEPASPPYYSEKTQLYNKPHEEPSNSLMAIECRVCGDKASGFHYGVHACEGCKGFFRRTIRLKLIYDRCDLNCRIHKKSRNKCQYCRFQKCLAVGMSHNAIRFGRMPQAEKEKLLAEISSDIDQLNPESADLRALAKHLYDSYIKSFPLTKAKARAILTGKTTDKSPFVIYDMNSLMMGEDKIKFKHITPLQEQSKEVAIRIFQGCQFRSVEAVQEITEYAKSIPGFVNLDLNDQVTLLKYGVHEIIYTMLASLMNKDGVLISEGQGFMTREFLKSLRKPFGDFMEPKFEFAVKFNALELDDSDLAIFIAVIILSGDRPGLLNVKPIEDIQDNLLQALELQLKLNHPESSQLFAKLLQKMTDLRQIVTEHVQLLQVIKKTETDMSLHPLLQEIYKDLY
Protocol: In addition to the Western blot, the diverse library was also screened in the in vitro PPAR-γ assay. […] The compounds were tested at 50 μg/mL according to the protocol detailed in section 3.2.3.

activation at 50 µg/mL ([3]; Table 4) [%]	Structure (SMILES)	NFκB p65 expression (Western blot band density) [1]	times less effective at inhibiting NFκB translocation than parent compound 24 [2] [times]	IC50 [2] [µM]	PPAR-γ activity in the in vitro assay (in words) [3]	NFκB expression (Western blot) ([1]; diabetic zebrafish, 10 μM, FIG. 5)	% Activation PPAR-γ ([3]; Table 2) [%]	% Activation PPAR-γ ([3]; Table 4) [%]
0	COc1cc(O[C@@H]2OCC(O)(CO[C@@H]3OC(CO)[C@@H](O)C(O)C3O)C2O)c2c(-c3ccc(OC(C)C)c(O)c3)cc(=O)oc2c1 (single isomer, unassigned) [Compound 40]	significantly inhibit NFκB expression versus the untreated, diabetic control	2.6	10.2	loss of all activity			
	COc1cc(O[C@@H]2O[C@H](CO[C@@H]3OCC(O)(CO)[C@H]3O)[C@@H](O)[C@H](O)[C@H]2O)c2c(-c3ccc(O)c(O)c3)cc(=O)oc2c1 (stereo partly drawn) [Compound 24, 5-O-[β-D-apiofuranosyl-(1→6)-β-D-glucopyranosyl]-7-methoxy-3′,4′-dihydroxy-4-phenylcoumarin]	opposite dose-dependent effect		3.95	top performers	excellent inhibition of NFκB expression	101	101
